From PubChem BioAssay AID1745844 (Carcinogenic Potency Database (CPDB), 2022)
Calls of active or inactive are those of the source. The rule behind the calls is not given here.

Tested on: rodent lifetime carcinogenesis bioassay, tumor incidence TD50
Assay: chronic cancer bioassays in animals – CPDB, compiled studies (AID 1745844)

For CC(COc1ccc(C(C)(C)C)cc1)OS(=O)OCCCl (stereo unspecified), which TD50 (mouse, strain B6AKF1, females, oral dosing, site: any site (literature study), lesion: several types, types named in the paper, dosed 80 weeks, study length 80 weeks) is on record?
Its TD50 is 391 mg/kg/day.

What about the TD50 (mouse, strain B6AKF1, females, oral dosing, site: lung, lesion: adenoma, dosed 80 weeks, study length 80 weeks) of the same compound?
Its TD50 is 432 mg/kg/day.

And the TD50 (mouse, strain B6AKF1, males, oral dosing, site: liver, lesion: hepatoma, dosed 77 weeks, study length 77 weeks)?
The TD50 was 15900 mg/kg/day.

What about the TD50 (mouse, strain B6C3F1, females, oral dosing, site: any site (literature study), lesion: several types, types named in the paper, dosed 77 weeks, study length 77 weeks) of the same compound?
Its TD50 is 92.7 mg/kg/day.

And the TD50 (mouse, strain B6C3F1, females, oral dosing, site: liver, lesion: hepatoma, dosed 77 weeks, study length 77 weeks)?
The TD50 was 973 mg/kg/day.

And the TD50 (mouse, strain B6C3F1, females, oral dosing, site: lung, lesion: adenoma, dosed 77 weeks, study length 77 weeks)?
Its TD50 is 973 mg/kg/day.

And the TD50 (mouse, strain B6C3F1, males, oral dosing, site: any site (literature study), lesion: several types, types named in the paper, dosed 80 weeks, study length 80 weeks)?
Its TD50 is 103 mg/kg/day.

And the TD50 (mouse, strain B6C3F1, males, oral dosing, site: liver, lesion: hepatoma, dosed 80 weeks, study length 80 weeks)?
Its TD50 is 158 mg/kg/day.

What about the TD50 (mouse, strain B6C3F1, males, oral dosing, site: liver, lesion: several types, types named in the paper, dosed 80 weeks, study length 80 weeks) of the same compound?
The TD50 was 126 mg/kg/day.

What about the TD50 (rat, strain CFN, both sexes, in feed, site: bile duct, lesion: adenoma, dosed 104 weeks, study length 104 weeks) of the same compound?
Its TD50 is 1010 mg/kg/day.

And the TD50 (rat, strain CFN, both sexes, in feed, site: liver, lesion: hyperplastic nodule, dosed 104 weeks, study length 104 weeks)?
The TD50 was 61.8 mg/kg/day.

What about the TD50 (rat, strain Food and Drug Research Laboratories stock rats, both sexes, in feed, site: liver, lesion: several types, types named in the paper, dosed 93 weeks, study length 104 weeks) of the same compound?
The TD50 was 430 mg/kg/day.

And the TD50 (rat, strain Osborne-Mendel, females, in feed, site: any site (literature study), lesion: benign tumor, dosed 104 weeks, study length 104 weeks)?
The TD50 was 31.5 mg/kg/day (inactive).

What about the carcinogen call (rat, strain Osborne-Mendel, females, in feed, site: any site (literature study), lesion: malignant tumor, dosed 104 weeks, study length 104 weeks) of the same compound?
Its carcinogen call is “negative (inactive)”.

And the carcinogen call (rat, strain Osborne-Mendel, females, in feed, site: any site (literature study), lesion: several types, types named in the paper, dosed 117 weeks, study length 117 weeks)?
Its carcinogen call is “negative (inactive)”.

And the TD50 (rat, strain Osborne-Mendel, females, in feed, site: liver, lesion: hemangioma, dosed 117 weeks, study length 117 weeks)?
Its TD50 is 256 mg/kg/day (inactive).

What about the carcinogen call (rat, strain Osborne-Mendel, females, in feed, site: liver, lesion: one or several types, types not named, dosed 104 weeks, study length 104 weeks) of the same compound?
The carcinogen call was “negative (inactive)”.

And the TD50 (rat, strain Osborne-Mendel, males, in feed, site: any site (literature study), lesion: benign tumor, dosed 104 weeks, study length 104 weeks)?
The TD50 was 64.7 mg/kg/day (inactive).

What about the carcinogen call (rat, strain Osborne-Mendel, males, in feed, site: any site (literature study), lesion: malignant tumor, dosed 104 weeks, study length 104 weeks) of the same compound?
Its carcinogen call is “negative (inactive)”.

What about the TD50 (rat, strain Osborne-Mendel, males, in feed, site: any site (literature study), lesion: malignant tumor, dosed 117 weeks, study length 117 weeks) of the same compound?
The TD50 was 101 mg/kg/day (inactive).

What about the TD50 (rat, strain Osborne-Mendel, males, in feed, site: any site (literature study), lesion: several types, types named in the paper, dosed 117 weeks, study length 117 weeks) of the same compound?
Its TD50 is 198 mg/kg/day (inactive).

And the carcinogen call (rat, strain Osborne-Mendel, males, in feed, site: liver, lesion: one or several types, types not named, dosed 104 weeks, study length 104 weeks)?
The carcinogen call was “negative (inactive)”.

And the carcinogen call (rat, strain Osborne-Mendel, males, in feed, site: liver, lesion: one or several types, types not named, dosed 117 weeks, study length 117 weeks)?
Its carcinogen call is “negative (inactive)”.

What about the TD50 (rat, strain Sprague-Dawley, both sexes, in feed, site: liver, lesion: hyperplastic nodule, dosed 104 weeks, study length 104 weeks) of the same compound?
Its TD50 is 760 mg/kg/day.

And the TD50 (rat, strain Wistar/FDRL, both sexes, in feed, site: bile duct, lesion: adenoma, dosed 104 weeks, study length 104 weeks)?
Its TD50 is 397 mg/kg/day.

And the TD50 (rat, strain Wistar/FDRL, both sexes, in feed, site: liver, lesion: hepatocellular carcinoma, dosed 104 weeks, study length 104 weeks)?
Its TD50 is 1000 mg/kg/day.

What about the TD50 (rat, strain Wistar/FDRL, both sexes, in feed, site: liver, lesion: hyperplastic nodule, dosed 104 weeks, study length 104 weeks) of the same compound?
The TD50 was 79.9 mg/kg/day.

For COc1cccc2c1cc([N+](=O)[O-])c1c(C(=O)O)cc3c(c12)OCO3, which TD50 (rat, strain Wistar, females, by gavage, site: forestomach, lesion: several types, types named in the paper, dosed 52 weeks, study length 69 weeks) is on record?
The TD50 was 0.0141 mg/kg/day.

What about the TD50 (rat, strain Wistar, females, by gavage, site: forestomach, lesion: squamous-cell carcinoma, dosed 52 weeks, study length 69 weeks) of the same compound?
The TD50 was 0.101 mg/kg/day.

What about the TD50 (rat, strain Wistar, females, by gavage, site: forestomach, lesion: squamous-cell papilloma, dosed 52 weeks, study length 69 weeks) of the same compound?
Its TD50 is 0.0247 mg/kg/day.

And the carcinogen call (rat, strain Wistar, males, by gavage, site: forestomach, lesion: squamous-cell carcinoma, dosed 52 weeks, study length 69 weeks)?
The carcinogen call was “positive”.

Which results are given for NC(=S)NNC(N)=S?
TD50 (mouse, strain B6C3F1, females, in feed, site: any site (literature study), lesion: several types, types named in the paper, dosed 94 weeks, study length 94 weeks): 4350 mg/kg/day; TD50 (mouse, strain B6C3F1, females, in feed, site: liver, lesion: hepatocellular adenoma + hepatocellular carcinoma + neoplastic nodule, dosed 94 weeks, study length 94 weeks): 5670 mg/kg/day; TD50 (mouse, strain B6C3F1, females, in feed, site: liver, lesion: hepatocellular carcinoma, dosed 94 weeks, study length 94 weeks): 5670 mg/kg/day; TD50 (mouse, strain B6C3F1, females, in feed, site: lung, lesion: alveolar/bronchiolar adenoma + alveolar/bronchiolar carcinoma, dosed 94 weeks, study length 94 weeks): 22900 mg/kg/day; TD50 (mouse, strain B6C3F1, males, in feed, site: any site (literature study), lesion: several types, types named in the paper, dosed 94 weeks, study length 94 weeks): 20000 mg/kg/day (inactive); TD50 (rat, strain Fischer 344, females, in feed, site: any site (literature study), lesion: several types, types named in the paper, dosed 109 weeks, study length 109 weeks): 842 mg/kg/day (inactive); TD50 (rat, strain Fischer 344, females, in feed, site: liver, lesion: hepatocellular adenoma + hepatocellular carcinoma + neoplastic nodule, dosed 109 weeks, study length 109 weeks): 131000 mg/kg/day; TD50 (rat, strain Fischer 344, males, in feed, site: any site (literature study), lesion: several types, types named in the paper, dosed 109 weeks, study length 109 weeks): 960 mg/kg/day; TD50 (rat, strain Fischer 344, males, in feed, site: liver, lesion: hepatocellular adenoma + hepatocellular carcinoma + neoplastic nodule, dosed 109 weeks, study length 109 weeks): 5010 mg/kg/day; TD50 (rat, strain Fischer 344, males, in feed, site: pituitary gland, lesion: carcinoma, NOS, dosed 109 weeks, study length 109 weeks): 2620 mg/kg/day (inactive)
